This note sets out measurements from US6172066A, “Dihydropyrimidines and uses thereof” (Synaptic Pharmaceutical Corporation, priority 1997, dated 2001).

Where a name gives a salt, the structure may show the parent alone.

The first assay deals with T1, α1A Human Adrenergic Receptor (Homo sapiens, UniProt P35348).
T1 construct: The entire coding region of α1A (1401 bp); expressed in transfected cells
T1 sequence (P35348 1-466): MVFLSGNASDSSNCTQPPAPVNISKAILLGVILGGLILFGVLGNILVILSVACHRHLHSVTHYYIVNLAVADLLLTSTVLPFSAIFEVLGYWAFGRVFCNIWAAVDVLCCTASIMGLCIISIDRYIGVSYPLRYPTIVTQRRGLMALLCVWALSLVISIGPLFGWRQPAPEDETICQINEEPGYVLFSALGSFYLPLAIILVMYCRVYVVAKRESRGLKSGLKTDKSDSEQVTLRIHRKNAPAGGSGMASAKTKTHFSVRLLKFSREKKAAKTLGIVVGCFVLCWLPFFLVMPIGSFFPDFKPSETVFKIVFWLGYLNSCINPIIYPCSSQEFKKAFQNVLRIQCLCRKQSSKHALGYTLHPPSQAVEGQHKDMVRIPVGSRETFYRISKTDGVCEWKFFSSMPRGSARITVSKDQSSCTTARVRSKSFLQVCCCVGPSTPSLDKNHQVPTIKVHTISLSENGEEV
In words: Radioligand binding, [3H]prazosin displacement, cloned human α1A receptor (LM(tk-) cell membranes). The note with it: [3H]prazosin 0.5 nM, 37° C., 20 min. On the procedure: The activity of compounds at the different human receptors was determined in vitro using cultured cell lines that selectively express the receptor of interest. These cell lines were prepared by transfecting the cloned cDNA or cloned genomic DNA or constructs containing both genomic DNA and cDNA encoding the human α-adrenergic receptors as follows:
The entire coding region of α1A (1401 bp), including 400 base pairs of 5' untranslated sequence (5' UT) and 200 bp of 3' untranslated sequence (3' UT), was cloned into the KpnI site of the polylinker-modifiedpCEXV-3-derived eukaryotic expression vector, EXJ.RH. The construct involved ligating three partial overlapping fragments: a 5' 0.6kb HincII genomic clone, a central 1.8 EcoRI hippocampal cDNA clone, and a 3' 0.6Kb PstI genomic clone. The hippocampal cDNA fragment overlaps with the 5' and 3' genomic clones so that the HincII and PstI sites at the 5' and 3' ends of the cDNA clone, respectively, were utilized for ligation. This full-length clone was cloned into the KpnI site of the expression vector, using the 5' and 3' KpnI sites of the fragment, derived from vector (i.e., pBluescript) and 3'-untranslated sequences, respectively. Stable cell lines were selected as described above. The stable cell line expressing the human α1A receptor used herein was designated L-α1C (old nomenclature) and was deposited with the American Type Culture Collection, 12301 Parklawn Drive, Rockville, Md. 20852, U.S.A. under the provisions of the Budapest Treaty for the International Recognition of the Deposit of Microorganisms for the Purposes of Patent Procedure. The cell line expressing the human α1A receptor was accorded Accession No. CRL 11140, on Sep. 25, 1992.
Transfected cells from culture flasks were scraped into 5 ml of 5 mM Tris-HCl, 5 mM EDTA, pH 7.5, and lysed by sonication. The cell lysates were centrifuged at 1000 rpm for 5 min at 4° C., and the supernatant was centrifuged at 30,000×g for 20 min at 4° C. The pellet was suspended in 50 mM Tris-HCl, 1 mM MgCl2, and 0.1% ascorbic acid at pH 7.5. Binding of the α1 antagonist [^3 H]prazosin (0.5 nM, specific activity 76.2 Ci/mmol) to membrane preparations of LM(tk-) cells was done in a final volume of 0.25 ml and incubated at 37° C. for 20 min. Nonspecific binding was determined in the presence of 10 μM phentolamine. The reaction was stopped by filtration through GF/B filters using a cell harvester. Inhibition experiments, routinely consisting of 7 concentrations of the tested compounds, were analyzed using a non-linear regression curve-fitting computer program to obtain Ki values.
For “cis-6-(3,4,5-Trifluorophenyl)-1-{N-[2-(4-cyano-4-phenyl-cyclohexylamino)ethyl]}-carboxamido-5-acetyl-4-methoxymethyl-2-oxo-1,2,3,6-tetrahydropyrimidine hydrochloride [Example 2]”, the “hα1A pKi” value was 9.51.

The same assay, now with this note: [3H]prazosin 0.5 nM, 37° C., 20 min, read-out: hα1A pKi (converted).
As to `COC(=O)C1=C(C)NC(=O)N(C(=O)NCCN[C@H]2CC[C@](C#N)(c3ccccc3F)CC2)C1c1ccc(F)c(F)c1` (single isomer, unassigned; (+)) [Example 13, (+)-cis-6-(3,4-Difluorophenyl)-1-{N-[2-(4-cyano-4-(2-fluorophenyl)-cyclohexylamino)ethyl]}carboxamido-5-methoxycarbonyl-4-methyl-2-oxo-1,2,3,6-tetrahydropyrimidine hydrochloride], the Ki is 102 pM. On the same count and under the same terms, the figure for `COCC1=C(C(=O)OC)C(c2ccc(F)c(F)c2)N(C(=O)NCCN[C@H]2CC[C@H](c3ccccn3)CC2)C(=O)N1` (single isomer, unassigned; (+)) [Example 7, (+)-trans-6-(3,4-Difluorophenyl)-1-{N-[2-(4-(2-pyridyl)-cyclohexylamino)ethyl]}carboxamido-5-methoxycarbonyl-4-methoxymethyl-2-oxo-1,2,3,6-tetrahydropyrimidine hydrochloride] is 4470 pM; for `COCC1=C(C(=O)OC)C(c2ccc(F)c(F)c2)N(C(=O)NCCN[C@H]2CC[C@](C#N)(c3ccccc3)CC2)C(=O)N1` (single isomer, unassigned; (+)) [Example 4, (+)-cis-6-(3,4-Difluorophenyl)-1-{N-[2-(4-cyano-4-phenyl-cyclohexylamino)ethyl]}carboxamido-5-methoxycarbonyl-4-methoxymethyl-2-oxo-1,2,3,6-tetrahydropyrimidine hydrochloride] it is 135 pM. `COCC1=C(C(=O)OC)C(c2ccc(F)c(F)c2)N(C(=O)NCCN[C@H]2CC[C@](C#N)(c3ccccn3)CC2)C(=O)N1` (single isomer, unassigned; (+)) [Example 14, (+)-cis-6-(3,4-Difluorophenyl)-1-{N-[2-(4-cyano-4-(2-pyridyl)-cyclohexylamino)ethyl]}carboxamido-5-methoxycarbonyl-4-methoxymethyl-2-oxo-1,2,3,6-tetrahydropyrimidine hydrochloride]: the Ki is 933 pM. Regarding `COCC1=C(C(=O)OC)C(c2ccc(F)c(F)c2)N(C(=O)NCCN[C@H]2CC[C@@](C#N)(c3ccccc3)CC2)C(=O)N1` (single isomer, unassigned; (+)) [Example 5, (+)-trans-6-(3,4-Difluorophenyl)-1-{N-[2-(4-cyano-4-phenyl-cyclohexylamino)ethyl]}carboxamido-5-methoxycarbonyl-4-methoxymethyl-2-oxo-1,2,3,6-tetrahydropyrimidine hydrochloride], the Ki is 126 pM. `COCC1=C(C(=O)OC)C(c2ccc(F)c(F)c2)N(C(=O)NCCN[C@H]2CC[C@](C(=O)OC)(c3ccccc3)CC2)C(=O)N1` (single isomer, unassigned; (+)) [Example 11, (+)-cis-6-(3,4-Difluorophenyl)-1-{N-[2-(4-methoxycarbonyl-4-phenyl-cyclohexylamino)ethyl]}carboxamido-5-methoxycarbonyl-4-methoxymethyl-2-oxo-1,2,3,6-tetrahydropyrimidine hydrochloride]: the Ki is 219 pM.

For `CCC1=C(C(N)=O)C(c2ccc(F)cc2F)N(C(=O)NCCN[C@H]2CC[C@](C#N)(c3ccccc3)CC2)C(=O)N1` (single isomer, unassigned; (+)) [Example 3, (+)-cis-5-Carboxamido-6-(2,4-difluorophenyl)-1-{N-[2-(4-cyano-4-phenyl-cyclohexylamino)ethyl]}carboxamido-4-ethyl-2-oxo-1,2,3,6-tetrahydropyrimidine hydrochloride], the Ki is 490 pM.
